From ChEMBL document CHEMBL1136018, “Synthesis of bis-spermine dimers that are potent polyamine transport inhibitors” (Bioorg Med Chem Lett, 2002)

Legend:
[1] = Inhibition of SPD uptake by polyamine transporter of MDA-MB-231 breast carcinoma cells; format: cell-based
[2] = tested on: MDA-MB-231; assay: Effective concentration of compound with DFMO tested in vitro for ability to inhibit polyamine transport and growth of MDA-MB-231 breast carcinoma cell line; format: functional, cell-based; details: Homo sapiens
[3] = tested on: MDA-MB-231; assay: Effective concentration of compound with DFMO tested in vitro for ability to inhibit polyamine transport and growth of MDA-MB-231 breast carcinoma cell line; Cytotoxic; format: functional, cell-based; details: Homo sapiens
[4] = tested on: MDA-MB-231; assay: Effective concentration of compound without DFMO tested in vitro for ability to inhibit polyamine transport and growth of MDA-MB-231 breast carcinoma cell line; Cytotoxic; format: functional, cell-based; details: Homo sapiens
[5] = tested on: MDA-MB-231; assay: Michaelis-Menten constant of compound was determined at MDA-MB-231 cell line mediated by polyamine transporter; format: cell-based; details: Homo sapiens

| Structure (SMILES) | Ki [1] | EC50 [2] | EC50 [3] | EC50 [4] | Km [5] |
| --- | --- | --- | --- | --- | --- |
| NCCCNCCCCNCCCNS(=O)(=O)c1ccc2cc(S(=O)(=O)NCCCNCCCCNCCCN)ccc2c1 | 0.06 µM | 230 µM |  |  |  |
| NCCCNCCCCNCCCNC(=O)CC12CC3CC(C1)CC(CC(=O)NCCCNCCCCNCCCN)(C3)C2 | 0.06 µM | > 300 µM |  |  |  |
| CCCCCCC(=O)NCCCNCCCCNCCCN | 0.28 µM |  | 63 µM |  |  |
| NCCCNCCCCNCCCNC(=O)CCCCCCCCCCC(=O)NCCCNCCCCNCCCN | 0.03 µM | 8 µM |  | 53 µM |  |
| NCCCNCCCCNCCCNC(=O)CCC(=O)NCCCNCCCCNCCCN | 0.03 µM | 2 µM |  |  |  |
| NCCCNCCCCNCCCNC(=O)CCCCC(=O)NCCCNCCCCNCCCN | 0.07 µM | 2.2 µM |  |  |  |
| CC(=O)NCCCNCCCCNCCCN | 0.18 µM | > 1000 µM |  |  |  |
| NCCCCN |  |  |  |  | 1.28 µM |
| NCCCNCCCCNCCCNC(=O)CCCCCCCC(=O)NCCCNCCCCNCCCN | 0.07 µM | 3 µM |  |  |  |
| NCCCNCCCCNCCCN |  |  |  |  | 2 µM |
| NCCCCNCCCN |  |  |  |  | 0.11 µM |
| NCCCNCCCCNCCCNC(=O)CCCC(=O)NCCCNCCCCNCCCN | 0.06 µM | 1.6 µM |  |  |  |
| NCCCNCCCCNCCCNC(=O)CCCCCCCCC(=O)NCCCNCCCCNCCCN | 0.08 µM | 9 µM |  | 240 µM |  |
| NCCCNCCCCNCCCNC(=O)CCCCCC(=O)NCCCNCCCCNCCCN | 0.04 µM | 6 µM |  |  |  |
| NCCCNCCCCNCCCNC(=O)CCCCCCC(=O)NCCCNCCCCNCCCN | 0.06 µM | 3.7 µM |  |  |  |
